Reference: patent US12491170B2, “Stable treprostinil prodrugs” (United Therapeutics Corporation, priority 2020, dated 2025)

Tests used:
[1] = biological target: prostaglandin I2 (PGI2) receptor (IP) (Homo sapiens, UniProt P43119); assay: IP receptor cAMP agonist assay (CHO-K1 cells); format: cell-based; set-up: key to EC50 Fold Different from Treprostinil, IP Receptor: NC = too inactive to realistically calculate; details: for IP Relative to Tre: Table 22, relative to treprostinil EC50 values, * partial agonists or ambiguous dose-response curves; for Activity at the IP receptor compared to treprostinil: summary of findings
Description: (§1) Cyclic AMP assay kit: Multiscreen™ TR-FRET cAMP 1.0 No Wash Assay Kit (Multispan, Inc.)
(§2) Cells were thawed from frozen cells and resuspended in assay buffer at desired concentrations. cAMP or Calcium assays were performed according to the manufacturer's protocol using Multiscreen™ TR-FRET cAMP 1.0 No Wash Assay Kit or Multiscreen™ Calcium 1.0 No Wash Kit.
(§3) Gas Cyclic AMP (cAMP) Assay: In agonist mode testing, cells were seeded in a 384-well plate at an appropriate density and then were treated with compounds and incubated at 37° C. for 20 minutes. The reaction was terminated by […] trFluor™ Eu-labeled cAMP and trFluor™ 650-labeled anti-cAMP antibody in lysis buffer. […] All testing wells contained 0.1% DMSO in the final concentrations.
(§4) Data in graphs are represented in Mean±SD. Dose-dependent responses were fitted with sigmoidal dose-response curves allowing variable slopes using GraphPad Prism version 6 (Graphpad Prism).
(§5) These studies used cell lines overexpressing either human IP, EP2 or DP1, or EP1 receptors, and following incubation with varying concentrations of compounds, cAMP levels were measured using Fluorescence Resonance Energy Transfer (FRET).

[2] = biological target: T1, prostaglandin D2 (PGD2) receptor 1 (DP1) (Homo sapiens, UniProt Q13258); assay: DP1 receptor cAMP agonist assay (HEK293T cells); format: cell-based; details: for DP1 Relative to Tre: relative to treprostinil EC50 values, * partial agonists or ambiguous dose-response curves; for Activity at the DP1 receptor compared to treprostinil: summary of findings
T1 sequence (Q13258 1-359): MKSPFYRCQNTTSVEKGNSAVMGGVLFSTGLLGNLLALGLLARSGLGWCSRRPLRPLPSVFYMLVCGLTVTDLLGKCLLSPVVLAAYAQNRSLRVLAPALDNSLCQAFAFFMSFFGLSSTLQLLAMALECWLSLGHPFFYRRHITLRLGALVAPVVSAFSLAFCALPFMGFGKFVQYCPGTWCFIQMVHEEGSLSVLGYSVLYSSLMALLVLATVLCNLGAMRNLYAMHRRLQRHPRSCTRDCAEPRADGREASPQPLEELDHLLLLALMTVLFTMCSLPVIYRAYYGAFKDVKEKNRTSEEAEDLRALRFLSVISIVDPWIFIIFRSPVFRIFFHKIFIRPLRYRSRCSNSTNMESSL
Description: as §1, §2, §3, §4, §5

[3] = Stability in human subcutaneous skin homogenate; details: for Mono AUC (treprostinil formed) / AUC: human
[4] = Stability in cryopreserved hepatocytes, human; details: for Mono AUC (treprostinil formed) / AUC / CLint / Half-life: human; for CLint, calculated (in parentheses) / Half-life, calculated (in parentheses) / CLint / Half-life: hepatocytes
[5] = Table 18, * partial agonists or odd dose-response curves

prostaglandin I2 (PGI2) receptor (IP), sequence (P43119 whole entry): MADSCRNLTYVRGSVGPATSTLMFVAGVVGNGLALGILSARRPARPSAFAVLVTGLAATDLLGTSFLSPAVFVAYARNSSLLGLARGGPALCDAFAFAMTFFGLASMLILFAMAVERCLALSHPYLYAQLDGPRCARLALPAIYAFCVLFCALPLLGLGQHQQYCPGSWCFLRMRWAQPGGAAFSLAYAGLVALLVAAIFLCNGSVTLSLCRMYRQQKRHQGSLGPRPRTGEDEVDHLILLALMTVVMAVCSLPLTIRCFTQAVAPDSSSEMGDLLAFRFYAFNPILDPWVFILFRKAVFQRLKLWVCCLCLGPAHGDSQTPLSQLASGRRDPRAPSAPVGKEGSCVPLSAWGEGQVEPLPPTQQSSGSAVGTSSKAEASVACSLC

Compound | IP Relative to Tre [1] [x] | DP1 Relative to Tre ([2]; Table 22) | Treprostinil Concentration 0 min [3] [µM] | Treprostinil Concentration 30 min [3] [µM] | Mono AUC (treprostinil formed) [3] [µmol·min/L] | Treprostinil Concentration 0 min [4] [µM] | Treprostinil Concentration 120 min [4] [µM] | Mono AUC (treprostinil formed) [4] [µmol·min/L] | Activity at the IP receptor compared to treprostinil [1] | DP1 Relative to Tre ([2]; Table 23) | AUC [3] [µmol·min/L] | CLint, calculated (in parentheses) [4] [mL/min/mg protein] | Half-life, calculated (in parentheses) [4] [min] | AUC [4] [µmol·min/L] | CLint [4] [mL/min/mg protein] | Half-life [4] [min] | Activity at the DP1 receptor compared to treprostinil [2] | Trep Concentration 0 min [3] [µM] | Trep Concentration 30 min [3] [µM] | Trep Concentration 60 min [3] [µM] | also measured
CCCCCC(CCC1C(OC(=O)OC)CC2Cc3c(cccc3OCC(=O)O)CC21)OC(=O)OC (centres unmarked) [Prodrug LXXI, treprostinil dicarbonate] | – | 2181x* | – | – | 0.3108 | – | – | 26.6 | inactive | 2181x* | 0.3108 | 0.0516 | 8.96 | 26.57 | > 0.0308 | < 15 | – | – | – | – | –
CCCCCC(CCC1C(OC(=O)CC)CC2Cc3c(cccc3OCC(=O)O)CC21)OC(=O)CC (centres unmarked) [Prodrug LXX, treprostinil dipropionate] | – | 410x | 0 | 0.0179 | 5.303 | 0.00542 | 0.413 | 56.2 | inactive | 410x | 5.303 | 0.185 | 2.50 | 56.2 | > 0.0308 | < 15 | several hundred-fold less active | 0 | 0.0179 | 0.0411 | EC50 Fold Different from Treprostinil, IP Receptor [1, 5]: NC; EC50 Fold Different from Treprostinil, DP1 Receptor [2, 5]: 410x*; Trep Concentration 120 min [3]: 0.0972 µM; Trep Concentration (μM) 0 min [4]: 0.00542 µM; Trep Concentration (μM) 15 min [4]: 0.638 µM; Trep Concentration (μM) 30 min [4]: 0.556 µM; Trep Concentration (μM) 60 min [4]: 0.482 µM; Trep Concentration (μM) 120 min [4]: 0.413 µM
CCCCCC(CCC1C(O)CC2Cc3c(cccc3OCC(=O)O)CC21)OC(=O)CC (centres unmarked) [Prodrug LV] | 54 | 94x | 0.0045 | 0.545 | 78.38 | 0.113 | 0.527 | 68.8 | – | – | – | – | – | – | – | – | – | – | – | – | –

The next lines start with results.

IP Relative to Tre [1] [x] | DP1 Relative to Tre ([2]; Table 22) | Treprostinil Concentration 0 min [3] [µM] | Treprostinil Concentration 30 min [3] [µM] | Mono AUC (treprostinil formed) [3] [µmol·min/L] | Treprostinil Concentration 0 min [4] [µM] | Treprostinil Concentration 120 min [4] [µM] | Mono AUC (treprostinil formed) [4] [µmol·min/L] | Activity at the IP receptor compared to treprostinil [1] | DP1 Relative to Tre ([2]; Table 23) | AUC [3] [µmol·min/L] | CLint, calculated (in parentheses) [4] [mL/min/mg protein] | Half-life, calculated (in parentheses) [4] [min] | AUC [4] [µmol·min/L] | CLint [4] [mL/min/mg protein] | Half-life [4] [min] | Activity at the DP1 receptor compared to treprostinil [2] | Trep Concentration 0 min [3] [µM] | Trep Concentration 30 min [3] [µM] | Trep Concentration 60 min [3] [µM] | Compound | also measured
632 | 272x | 0.0034 | 0.382 | 62.92 | 0.00744 | 0.507 | 62.2 | – | – | – | – | – | – | – | – | – | – | – | – | CCCCCC(CCC1C(O)CC2Cc3c(cccc3OCC(=O)O)CC21)OC(C)=O (centres unmarked) [Prodrug XLIII] | Treprostinil Concentration 60 min [3]: 0.583 µM; Treprostinil Concentration 120 min [3]: 0.839 µM
– | – | 0 | 0.02 | 7.512 | 0.00458 | – | 49.9 | inactive | – | 7.512 | 0.276 | 1.67 | 49.92 | > 0.0308 | < 15 | several hundred-fold less active | 0 | 0.02 | 0.0556 | treprostinil diacetate [Prodrug LXXII] | Trep Concentration 120 min [3]: 0.147 µM; Trep Concentration (μM) 0 min [4]: 0.00458 µM; Trep Concentration (μM) 15 min [4]: 0.562 µM; Trep Concentration (μM) 30 min [4]: 0.491 µM; Trep Concentration (μM) 60 min [4]: 0.433 µM
5 | 2x | 0 | 0.6 | 91.95 | 0 | 0.540 | 48.7 | – | – | – | – | – | – | – | – | – | – | – | – | CCCCCC(CCC1C(O)CC2Cc3c(cccc3OCC(=O)O)CC21)OP(=O)(O)O (centres unmarked) [Prodrug VI] | IP Relative to Tre ([1]; listed as Prodrug VI repeat): 1.5x
